Activity calls are given as the source filed them. No cut-off for these calls is given here. Bounds are passed on as bounds.

We go through one compound from ChEMBL document CHEMBL1212924 (J Med Chem, 2010).

In one data set the target is T1, CYP1A2 (Homo sapiens, UniProt P05177).
T1 sequence (P05177 whole entry): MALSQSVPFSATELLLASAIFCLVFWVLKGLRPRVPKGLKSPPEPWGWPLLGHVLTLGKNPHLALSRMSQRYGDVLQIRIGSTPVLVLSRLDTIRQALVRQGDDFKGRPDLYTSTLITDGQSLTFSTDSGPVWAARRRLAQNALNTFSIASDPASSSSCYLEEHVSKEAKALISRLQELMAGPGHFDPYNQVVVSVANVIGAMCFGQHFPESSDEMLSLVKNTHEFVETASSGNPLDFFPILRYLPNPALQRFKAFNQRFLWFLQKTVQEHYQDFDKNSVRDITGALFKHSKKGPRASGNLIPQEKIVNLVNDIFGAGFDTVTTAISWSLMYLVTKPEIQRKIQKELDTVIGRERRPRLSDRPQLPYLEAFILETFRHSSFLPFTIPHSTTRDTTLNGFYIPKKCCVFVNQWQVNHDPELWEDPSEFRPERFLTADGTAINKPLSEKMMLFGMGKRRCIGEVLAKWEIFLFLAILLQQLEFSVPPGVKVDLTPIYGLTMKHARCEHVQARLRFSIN
The data set can be described thus: Inhibition of CYP1A2 at 10 uM. The class given is ADME.

The target in another data set is CYP2C9 (Homo sapiens, UniProt P11712). The data set can be described thus: Inhibition of CYP2C9 at 10 uM. The class given is ADME.
For a further data set, the target named is CYP2D6 (Homo sapiens, UniProt P10635). The data set is described as follows: Inhibition of CYP2D6 at 10 uM. The class given is ADME.
The target of another data set is CYP3A4 (Homo sapiens, UniProt P08684). The data set is described as follows: Inhibition of CYP3A4 at 10 uM. The class given is ADME.
The target of data set [1] is Serine/threonine-protein kinase MRCK alpha (Homo sapiens, UniProt Q5VT25). The data set is described as follows: Inhibition of MRCKalpha.
The nature of data set [2]: Inhibition of p38.
The target in data set [3] is Dual specificity protein kinase CLK1 (Homo sapiens) (UniProt P49759). The data set can be described thus: Inhibition of CLK1 at 3 uM.
Data set [4] deals with Dual specificity protein kinase CLK4 (Homo sapiens) (UniProt Q9HAZ1). The data set can be described thus: Inhibition of CLK4 at 3 uM.
Data set [5] concerns the target T2, Serine/threonine-protein kinase LATS2 (Homo sapiens) (UniProt Q9NRM7).
T2 sequence (whole entry): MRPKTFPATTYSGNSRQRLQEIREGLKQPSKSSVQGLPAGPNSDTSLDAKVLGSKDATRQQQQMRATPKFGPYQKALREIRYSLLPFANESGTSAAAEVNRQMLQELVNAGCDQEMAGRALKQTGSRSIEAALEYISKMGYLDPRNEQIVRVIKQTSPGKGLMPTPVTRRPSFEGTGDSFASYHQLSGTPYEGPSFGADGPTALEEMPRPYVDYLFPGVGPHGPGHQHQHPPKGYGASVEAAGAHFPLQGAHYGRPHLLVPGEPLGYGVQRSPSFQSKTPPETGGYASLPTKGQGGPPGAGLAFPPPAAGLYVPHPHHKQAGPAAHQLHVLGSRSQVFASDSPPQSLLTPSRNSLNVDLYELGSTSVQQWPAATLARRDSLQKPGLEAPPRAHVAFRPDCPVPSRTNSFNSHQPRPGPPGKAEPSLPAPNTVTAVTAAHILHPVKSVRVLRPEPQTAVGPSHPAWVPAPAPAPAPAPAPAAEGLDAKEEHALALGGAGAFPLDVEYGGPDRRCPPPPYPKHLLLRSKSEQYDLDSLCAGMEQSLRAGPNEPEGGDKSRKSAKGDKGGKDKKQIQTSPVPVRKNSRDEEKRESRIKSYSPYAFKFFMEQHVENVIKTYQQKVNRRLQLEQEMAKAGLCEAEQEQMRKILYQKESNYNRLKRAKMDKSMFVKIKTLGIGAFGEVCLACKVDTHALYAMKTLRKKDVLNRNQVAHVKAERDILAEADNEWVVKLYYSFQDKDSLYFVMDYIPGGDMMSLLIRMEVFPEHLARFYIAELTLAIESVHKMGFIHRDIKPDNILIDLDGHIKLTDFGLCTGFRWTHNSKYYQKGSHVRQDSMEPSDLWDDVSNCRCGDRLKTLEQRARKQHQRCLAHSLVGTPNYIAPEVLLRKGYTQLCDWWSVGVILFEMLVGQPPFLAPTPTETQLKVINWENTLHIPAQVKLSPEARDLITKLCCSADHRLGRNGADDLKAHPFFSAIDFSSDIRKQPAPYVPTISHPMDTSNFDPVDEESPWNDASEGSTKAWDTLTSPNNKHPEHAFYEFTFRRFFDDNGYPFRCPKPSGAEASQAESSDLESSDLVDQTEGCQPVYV
The data set can be described thus: Inhibition of Lats2 at 3 uM.

Data set [6] deals with Serine/threonine-protein kinase MRCK beta (Homo sapiens) (UniProt Q9Y5S2). The data set is described as follows: Inhibition of MRCKbeta at 3 uM.
Data set [7] addresses Serine/threonine-protein kinase 38 (Homo sapiens) (UniProt Q15208). The data set is described as follows: Inhibition of NDR1 at 3 uM.
Data set [8] deals with Phosphatidylinositol 4,5-bisphosphate 3-kinase catalytic subunit beta isoform (Homo sapiens) (UniProt P42338). The data set is described as follows: Inhibition of PI3Kbeta at 3 uM.
Data set [9] concerns the target Serine/threonine-protein kinase 33 (Homo sapiens) (UniProt Q9BYT3). The data set can be described thus: Inhibition of STK33 at 3 uM.
A short description of data set [10]: Clearance in rat at 1 mg/kg, iv and 2 mg/kg, po. As to conditions: in vivo. The class given is ADME, organism-based.
Data set [11] is described as follows: Volume of distribution in rat at 1 mg/kg, iv and 2 mg/kg, po. The class given is ADME, organism-based. As to conditions: in vivo.
The nature of data set [12]: Oral bioavailability in rat at 2 mg/kg. The class given is ADME, organism-based. Particulars: in vivo.
Data set [13] can be described thus: Half life in rat at 1 mg/kg, iv and 2 mg/kg, po. The class given is ADME, organism-based. Particulars: in vivo.
The test system of a further data set is Rattus norvegicus. The data set can be described thus: Reduction in intraocular pressure in Brown norway rat at 40 ug administered as drops in eye after 2 hrs. It is filed as functional, organism-based.
Data set [14] concerns the target Rho-associated protein kinase 1 (Homo sapiens, UniProt Q13464).
Data set [15] addresses Mitogen-activated protein kinase 10 (Homo sapiens, UniProt P53779).
The nature of another data set: in vitro. As to conditions: human, liver microsomes. For orientation: Liver microsomes are a subcellular fraction often used to study metabolism.

Serine/threonine-protein kinase 33 (Homo sapiens), sequence (Q9BYT3 whole entry, looked up): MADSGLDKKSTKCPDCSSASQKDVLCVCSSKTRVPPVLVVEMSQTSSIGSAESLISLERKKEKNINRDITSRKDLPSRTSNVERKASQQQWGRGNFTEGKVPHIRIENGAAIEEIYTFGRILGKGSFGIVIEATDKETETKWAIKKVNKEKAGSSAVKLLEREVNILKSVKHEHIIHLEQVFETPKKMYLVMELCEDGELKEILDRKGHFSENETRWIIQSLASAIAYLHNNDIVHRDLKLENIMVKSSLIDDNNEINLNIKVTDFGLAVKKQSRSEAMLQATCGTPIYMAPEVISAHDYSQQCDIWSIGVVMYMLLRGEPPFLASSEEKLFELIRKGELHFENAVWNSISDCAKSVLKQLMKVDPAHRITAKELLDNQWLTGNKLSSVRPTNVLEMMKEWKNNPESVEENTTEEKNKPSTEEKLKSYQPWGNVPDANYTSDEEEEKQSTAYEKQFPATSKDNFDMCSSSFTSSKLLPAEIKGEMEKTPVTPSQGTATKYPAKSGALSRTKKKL
Serine/threonine-protein kinase MRCK beta (Homo sapiens), sequence (Q9Y5S2 whole entry): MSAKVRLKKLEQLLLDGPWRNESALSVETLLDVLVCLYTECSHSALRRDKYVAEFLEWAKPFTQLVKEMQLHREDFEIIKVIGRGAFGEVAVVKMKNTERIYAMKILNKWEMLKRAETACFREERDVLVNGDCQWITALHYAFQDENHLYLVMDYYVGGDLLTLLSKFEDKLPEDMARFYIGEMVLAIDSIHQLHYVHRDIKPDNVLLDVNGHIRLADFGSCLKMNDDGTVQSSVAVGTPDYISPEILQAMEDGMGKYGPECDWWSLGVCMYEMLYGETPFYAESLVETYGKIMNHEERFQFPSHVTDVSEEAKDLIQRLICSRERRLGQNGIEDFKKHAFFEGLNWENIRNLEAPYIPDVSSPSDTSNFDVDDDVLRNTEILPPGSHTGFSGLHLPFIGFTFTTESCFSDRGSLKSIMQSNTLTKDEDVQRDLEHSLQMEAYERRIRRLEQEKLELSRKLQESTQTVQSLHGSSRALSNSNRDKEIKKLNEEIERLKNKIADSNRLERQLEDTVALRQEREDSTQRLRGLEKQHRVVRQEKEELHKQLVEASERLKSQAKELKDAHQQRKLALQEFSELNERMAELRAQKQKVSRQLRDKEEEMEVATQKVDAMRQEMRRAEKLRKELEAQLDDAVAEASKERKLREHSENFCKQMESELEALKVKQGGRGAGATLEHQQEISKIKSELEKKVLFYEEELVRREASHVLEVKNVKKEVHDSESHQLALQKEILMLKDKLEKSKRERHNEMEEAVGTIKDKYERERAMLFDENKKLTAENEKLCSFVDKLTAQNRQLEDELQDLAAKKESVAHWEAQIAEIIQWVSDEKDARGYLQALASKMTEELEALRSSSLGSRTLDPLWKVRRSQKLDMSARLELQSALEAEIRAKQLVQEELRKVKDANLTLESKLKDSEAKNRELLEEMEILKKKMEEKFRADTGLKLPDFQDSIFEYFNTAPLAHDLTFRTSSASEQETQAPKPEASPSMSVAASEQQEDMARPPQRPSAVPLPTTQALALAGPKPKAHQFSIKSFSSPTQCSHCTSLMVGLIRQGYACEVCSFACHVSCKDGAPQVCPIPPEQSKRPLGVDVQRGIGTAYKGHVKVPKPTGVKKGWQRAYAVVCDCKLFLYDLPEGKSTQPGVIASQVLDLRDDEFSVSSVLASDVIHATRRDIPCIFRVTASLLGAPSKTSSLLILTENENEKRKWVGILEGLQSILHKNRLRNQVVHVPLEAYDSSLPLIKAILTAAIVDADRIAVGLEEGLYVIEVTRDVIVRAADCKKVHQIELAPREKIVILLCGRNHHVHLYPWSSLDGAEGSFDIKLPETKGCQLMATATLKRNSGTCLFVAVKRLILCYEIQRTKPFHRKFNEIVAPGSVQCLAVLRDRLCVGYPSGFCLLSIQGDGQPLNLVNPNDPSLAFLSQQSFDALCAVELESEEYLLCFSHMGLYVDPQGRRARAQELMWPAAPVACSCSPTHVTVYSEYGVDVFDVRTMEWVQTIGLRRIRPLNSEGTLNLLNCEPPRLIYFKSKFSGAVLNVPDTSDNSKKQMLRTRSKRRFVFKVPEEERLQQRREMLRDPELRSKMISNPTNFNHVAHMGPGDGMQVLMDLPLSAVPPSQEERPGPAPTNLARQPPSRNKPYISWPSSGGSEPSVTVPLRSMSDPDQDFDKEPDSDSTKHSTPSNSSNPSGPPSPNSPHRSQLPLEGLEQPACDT
Serine/threonine-protein kinase 38 (Homo sapiens), sequence (Q15208 2-465 limits assumed): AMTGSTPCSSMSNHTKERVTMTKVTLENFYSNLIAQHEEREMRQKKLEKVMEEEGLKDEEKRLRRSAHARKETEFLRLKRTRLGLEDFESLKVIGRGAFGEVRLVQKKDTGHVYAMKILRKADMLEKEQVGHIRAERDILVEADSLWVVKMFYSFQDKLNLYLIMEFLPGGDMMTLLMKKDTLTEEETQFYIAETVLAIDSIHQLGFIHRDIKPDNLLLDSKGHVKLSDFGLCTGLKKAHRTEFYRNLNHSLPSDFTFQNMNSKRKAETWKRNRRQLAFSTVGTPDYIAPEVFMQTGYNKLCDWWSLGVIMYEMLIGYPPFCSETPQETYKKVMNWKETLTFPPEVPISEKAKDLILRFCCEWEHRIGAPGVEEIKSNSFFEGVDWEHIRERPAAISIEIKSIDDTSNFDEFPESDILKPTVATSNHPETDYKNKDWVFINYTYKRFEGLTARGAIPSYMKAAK
Serine/threonine-protein kinase MRCK alpha, sequence (Q5VT25 whole entry): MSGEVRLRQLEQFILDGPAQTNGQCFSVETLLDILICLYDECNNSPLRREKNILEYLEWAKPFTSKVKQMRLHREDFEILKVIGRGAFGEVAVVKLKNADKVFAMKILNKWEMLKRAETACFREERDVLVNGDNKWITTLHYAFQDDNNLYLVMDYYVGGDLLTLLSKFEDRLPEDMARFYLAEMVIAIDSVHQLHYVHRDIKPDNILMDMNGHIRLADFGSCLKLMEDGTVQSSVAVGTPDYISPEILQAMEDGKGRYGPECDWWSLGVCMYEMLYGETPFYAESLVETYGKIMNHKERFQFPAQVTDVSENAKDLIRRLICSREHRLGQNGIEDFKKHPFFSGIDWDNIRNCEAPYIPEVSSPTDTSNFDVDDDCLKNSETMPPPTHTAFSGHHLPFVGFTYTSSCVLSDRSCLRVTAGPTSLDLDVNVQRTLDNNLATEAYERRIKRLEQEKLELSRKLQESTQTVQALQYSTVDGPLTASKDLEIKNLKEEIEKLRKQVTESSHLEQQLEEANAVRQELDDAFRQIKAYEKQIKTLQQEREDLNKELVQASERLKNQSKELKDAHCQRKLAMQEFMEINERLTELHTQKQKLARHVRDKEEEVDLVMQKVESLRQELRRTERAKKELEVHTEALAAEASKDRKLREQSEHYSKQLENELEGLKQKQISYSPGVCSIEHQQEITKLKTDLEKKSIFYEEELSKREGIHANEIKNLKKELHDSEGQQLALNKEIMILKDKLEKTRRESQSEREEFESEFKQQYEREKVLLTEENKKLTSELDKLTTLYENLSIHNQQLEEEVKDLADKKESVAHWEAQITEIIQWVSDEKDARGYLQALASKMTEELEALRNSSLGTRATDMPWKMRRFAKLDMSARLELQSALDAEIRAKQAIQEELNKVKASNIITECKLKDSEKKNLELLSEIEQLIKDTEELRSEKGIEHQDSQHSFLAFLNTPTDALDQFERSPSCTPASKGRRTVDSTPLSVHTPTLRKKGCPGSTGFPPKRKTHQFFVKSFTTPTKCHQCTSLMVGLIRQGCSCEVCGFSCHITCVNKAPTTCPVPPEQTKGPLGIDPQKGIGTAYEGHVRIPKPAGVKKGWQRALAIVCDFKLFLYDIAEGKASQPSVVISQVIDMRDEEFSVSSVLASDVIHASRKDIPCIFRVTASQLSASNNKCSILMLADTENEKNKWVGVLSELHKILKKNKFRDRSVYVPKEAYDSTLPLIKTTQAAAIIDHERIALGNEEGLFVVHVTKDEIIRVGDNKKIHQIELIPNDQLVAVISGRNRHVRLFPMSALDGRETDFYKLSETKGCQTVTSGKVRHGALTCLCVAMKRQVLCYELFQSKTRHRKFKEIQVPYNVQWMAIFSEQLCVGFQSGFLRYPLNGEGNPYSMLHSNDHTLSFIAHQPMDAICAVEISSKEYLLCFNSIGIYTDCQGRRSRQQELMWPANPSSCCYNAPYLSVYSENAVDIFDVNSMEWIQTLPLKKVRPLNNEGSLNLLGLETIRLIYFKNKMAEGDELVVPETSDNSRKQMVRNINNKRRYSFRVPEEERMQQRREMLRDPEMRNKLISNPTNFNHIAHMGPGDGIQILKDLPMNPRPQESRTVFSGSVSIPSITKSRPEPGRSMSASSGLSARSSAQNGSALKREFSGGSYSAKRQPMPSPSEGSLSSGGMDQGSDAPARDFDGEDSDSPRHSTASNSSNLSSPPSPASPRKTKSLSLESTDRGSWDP
CYP2C9, sequence (P11712 whole entry): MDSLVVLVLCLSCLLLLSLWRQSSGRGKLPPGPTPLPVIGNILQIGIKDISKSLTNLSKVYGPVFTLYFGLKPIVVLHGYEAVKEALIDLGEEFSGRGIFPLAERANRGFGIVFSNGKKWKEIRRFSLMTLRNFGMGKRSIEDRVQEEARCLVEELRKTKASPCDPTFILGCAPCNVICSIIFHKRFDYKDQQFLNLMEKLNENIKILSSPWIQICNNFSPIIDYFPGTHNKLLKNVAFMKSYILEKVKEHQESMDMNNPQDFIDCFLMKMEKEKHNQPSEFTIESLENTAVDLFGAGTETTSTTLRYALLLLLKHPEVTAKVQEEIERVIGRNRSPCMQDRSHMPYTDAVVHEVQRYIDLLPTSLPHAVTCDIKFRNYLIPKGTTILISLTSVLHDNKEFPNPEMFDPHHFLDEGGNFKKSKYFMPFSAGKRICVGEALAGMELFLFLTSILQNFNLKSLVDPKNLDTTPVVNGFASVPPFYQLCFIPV
Description for in vitro: Half life in human liver microsome at 2 mg/mL

What is called inhibition is how much of the control response was suppressed. A lower inhibition goes with a weak effect. A word on the IC50: it is the concentration that gives 50% inhibition. The low end stands for greater potency, the high end for weaker potency. Usually bioavailability stands for dose-corrected exposure relative to a reference, in per cent. A word on the half-life: it is the time in which the quantity being followed falls by half. As for `COc1ccc2c(c1)C[C@H](C(=O)Nc1ccc(-c3cn[nH]c3)cc1OCC1CCN(C)CC1)NC2`, the inhibition at 10 µM on CYP1A2 came to 3%; against CYP2C9, 45%; at CYP2D6 it was 52%; against CYP3A4, 15%. Also, the IC50 in data set [1] was 669 nM; in [2], more than 20000 nM; in data set [14] it was 10 nM; in data set [15] it was more than 20000 nM. Also, the inhibition in [3] was determined as 86%; in [4], 91%; in data set [5], 75%; in data set [6], 77%; in [7], 72%; in data set [8], 74%. In [9], this compound registered an inhibition of 66%. For the same compound, the clearance in data set [10] was found to be 41 mL/min/kg. This compound also displayed a Vd in data set [11] of 9.5 L/kg. The compound further had a bioavailability in data set [12] of 0%. For the same compound, the figures for the half-life (in data set [13]; in the data set “in vitro”) were 3.4 h and 1.02 h, respectively. Further, in the data set with Rattus norvegicus, the outcome was Active.
